Read-outs that look alike come from different tables or passages of the source.
Key:
[1] = type: physicochemical
Description: <Experiment 1. Test of Comparing Lead Dissolving Out Ability of Chelating Agent>
In order to study a kind of a chelating agent to be added to a contaminated soil, the lead dissolving out abilities of 26 types of chelating agents (chelate reagents) were compared (FIG. 2).
2) Chelating agent: Each chelating agent of 100 mmol·dm^−3 and pH 5.8 was prepared.
3) Five grams of 1) the subject soil and 50 ml of 2) the chelating agent were put into to a 100 ml vessel, and shaken (200 times/min) at 20° C. for 6 hours. Repeated cycle was 3.
4) For comparison, a contrast section was prepared, in which desalted water was added instead of the chelating agent in the 3).
5) After shaking, the sample after filtration was centrifuged at 15000 rpm for 5 minutes, and the supernatant liquid was further centrifuged again under the same condition.
6) From the separated supernatant liquid, a lead concentration was measured with an inductively coupled high frequency plasma spectrometry (ICP) device.

[2] = test system: Fagopyrum esculentum; details: for Terrestrial lead accumulated amount, fold of EDTA-2Na at the same concentration / Terrestrial lead accumulated amount, fold of contrast section / Leaf dry weight / Stem dry weight / Stem lead concentration / Terrestrial dry weight / Terrestrial part lead accumulation amount / Terrestrial part lead concentration: soil B; for Leaf lead concentration: soil B (lead 13032 mg/kg), added one week before harvesting
Description: A lead concentration in a soil or a plant body was analyzed using ICP-AES (inductively coupled plasma-atomic emission spectrometry) regarding a sample obtained by adding nitric acid and degrading this with a microwave.
A cultivating experiment was conducted as follows: in which Fagopyrum esculentum and Brassica juncca were cultivated in a lead-containing soil filled in a Wagnel pot, a chelating agent was further added to the soil, and a difference in a lead accumulating amount depending on the cultivating condition was examined.
In addition, considering influence on plants and environment such as a salt concentration damage, 1, 5, 10 and 20 mmol kg^−1 soil of chemical reagents were adopted as an addition concentration, and 300 ml/pot (soil 3 kg) was provided as an addition amount.
1) Test plant: Fagopyrum esculentum, trade name (Milkyway), Brassica juncea
2) Test soil: Soil B (sampled from an old firing range site, soil lead concentration 13032 mg/kg), contrast sample (mountain sand in Gifu Prefecture of Japan, soil lead concentration 21 mg/kg)

[3] = test system: Fagopyrum esculentum; test: Fagopyrum esculentum growth situation after addition of chelating agent
Description: 3) The soil B (3 kg) and the contrast section soil (4.3 kg) which had been passed through a sieve (2 mm) were mixed with urea (N: 69 mg/kg soil), calcium superphosphate (P: 75 mg/kg soil), potassium chloride (K: 72 mg/kg soil), and magnesia lime (Mg: 67 mg/kg soil), and sufficiently stirred. 4) The test soil was filled into a Wagnel pot (1/5000a), and a plant was seeded (3 pits/pot, 3 grains/pit). 5) Four to five days after germination, the plant was thinned out to 3 individuals/pot. 6) Cultivation in a gross chamber (Environmental Condition) Temperature: 25° C.×12 h (8:00-20:00), 20° C.×12 h (20:00-8:00) Humidity: 60% Illumination: light condition (8:00-20:00), dark condition (20:00-8:00) Illuminance: 98001×, 180μ mmol˜m^−2·s^−1 7) Aspersion was performed at 100 ml/pot every day. 8) During a test term, a position of a pot was changed four times. 9) Individuals which were about to fall were induced by a support post. 10) One week before harvesting, a chelating agent at each concentration was added to the soil B. An addition amount was 300 ml/pot, and the chelating agent was carefully added to a surface of the soil so that the chelating agent was not contacted with the plant. On the day before addition of the chelating agent and on the day of addition, aspersion was not performed. […] 12) Repeated cycles in all sections were 3 (3 pots/test section).

[4] = chelating agent 100 mmol·dm^−3, pH 5.8, Soil A, shaken at 20° C. for 6 hours, FIG. 2
[5] = chelating agent 10 mmol/kg soil
[6] = chelating agent 20 mmol/kg soil
[7] = four days after addition, 1 mmol/kg soil
[8] = four days after addition, 5 mmol/kg soil
[9] = four days after addition, 10 mmol/kg soil
[10] = four days after addition, 20 mmol/kg soil
[11] = two days after addition, 20 mmol/kg soil

## O=C([O-])CC(NCCNC(CC(=O)O)C(=O)[O-])C(=O)[O-].[Na+].[Na+].[Na+] (stereo not shown) [EDDS·3Na, disodium ethylenediamine succinate]
[1]; pH 5.8
  lead dissolving out ability: high lead dissolving out ability

## N[C@@H](CS)C(=O)O [L-cysteine]
[1]; [4]
  lead dissolving out ability: high lead dissolving out ability

## CC(C(=O)[O-])N(CC(=O)[O-])CC(=O)[O-].[Na+].[Na+].[Na+] (stereo not shown) [MGDA · 3Na, trisodium methylglycine diacetate]
[2]; 10 mmol/kg soil
  Terrestrial lead accumulated amount, fold of EDTA-2Na at the same concentration: 1.6 fold
  Terrestrial lead accumulated amount, fold of contrast section: 3.4 fold
[2]; 20 mmol/kg soil
  Terrestrial lead accumulated amount, fold of EDTA-2Na at the same concentration: 1.3 fold
  Terrestrial lead accumulated amount, fold of contrast section: 3.7 fold
[2]; 10, 20 mmol/kg soil, contrast section 2043 mg/kg
  addition effect on lead concentration in stems: high addition effect
[2]; 10, 20 mmol/kg soil, contrast section 7971 mg/kg
  addition effect on lead concentration in leaves: high addition effect
[2]; chelating agent 1 mmol/kg soil
  Leaf dry weight: 0.9422 g/plant
  Stem dry weight: 1.9496 g/plant
  Stem lead concentration: 2310 mg/kg
  Terrestrial dry weight: 2.8918 g/plant
  Terrestrial part lead accumulation amount: 0.0130 g/plant
  Terrestrial part lead concentration: 4484 mg/kg
  Leaf lead concentration: 8981 mg/kg
[2]; chelating agent 5 mmol/kg soil
  Leaf dry weight: 0.8863 g/plant
  Stem dry weight: 1.8543 g/plant
  Stem lead concentration: 2384 mg/kg
  Terrestrial dry weight: 2.7406 g/plant
  Terrestrial part lead accumulation amount: 0.0156 g/plant
  Terrestrial part lead concentration: 5690 mg/kg
  Leaf lead concentration: 12607 mg/kg
[2]; [5]
  Leaf dry weight: 0.7343 g/plant
  Stem dry weight: 1.5023 g/plant
  Stem lead concentration: 10098 mg/kg
  Terrestrial dry weight: 2.2366 g/plant
  Terrestrial part lead accumulation amount: 0.0399 g/plant
  Terrestrial part lead concentration: 17858 mg/kg
  Leaf lead concentration: 33735 mg/kg
[2]; [6]
  Leaf dry weight: 0.5582 g/plant
  Stem dry weight: 1.3716 g/plant
  Stem lead concentration: 16437 mg/kg
  Terrestrial dry weight: 1.9298 g/plant
  Terrestrial part lead accumulation amount: 0.0441 g/plant
  Terrestrial part lead concentration: 22848 mg/kg
  Leaf lead concentration: 38601 mg/kg
[2]; per unit area, calculated, chelating agent 1 mmol/kg soil
  Terrestrial part lead accumulation amount: 1.95 g/m^2
[2]; per unit area, calculated, chelating agent 5 mmol/kg soil
  Terrestrial part lead accumulation amount: 2.34 g/m^2
[2]; per unit area, calculated, chelating agent 10 mmol/kg soil
  Terrestrial part lead accumulation amount: 5.99 g/m^2
[2]; per unit area, calculated, chelating agent 20 mmol/kg soil
  Terrestrial part lead accumulation amount: 6.62 g/m^2
[3]; [7]
  Discoloration of leaf (number of individuals for which symptom was observed): 3
  Leaf drop (number of individuals for which symptom was observed): 1
  Wilting of leaf (number of individuals for which symptom was observed): 1
[3]; [8]
  Discoloration of leaf (number of individuals for which symptom was observed): 3
  Wilting of leaf (number of individuals for which symptom was observed): 1
[3]; [9]
  Discoloration of flower (number of individuals for which symptom was observed): 5
  Discoloration of leaf (number of individuals for which symptom was observed): 2
  Leaf drop (number of individuals for which symptom was observed): 2
  Wilting of leaf (number of individuals for which symptom was observed): 6
[3]; [10]
  Discoloration of flower (number of individuals for which symptom was observed): 9
  Discoloration of leaf (number of individuals for which symptom was observed): 9
  Leaf drop (number of individuals for which symptom was observed): 7
  Wilting of leaf (number of individuals for which symptom was observed): 9
  yellow leaves, spotting and discoloration of leaves, and discoloration of a flower: confirmed in all individuals
[3]; four days after addition, 20 mmol/kg soil, in words
  leaf drop: observed in almost all individuals
[3]; [11]
  discoloration of leaves: discoloration of leaves was observed
  leaf drop: confirmed partially
[1]; [4]
  lead dissolving out ability: high lead dissolving out ability
